# Source: the METLIN SMRT retention time set (Domingo-Almenara et al. 2019)
# Test: gradient 5% acetonitrile 3 min, to 50% in 2 min, to 85% in 15 min, held 3 min, 100 µL/min
# Conditions: column: Zorbax Extend-C18 2.1 x 50 mm; eluents: water / acetonitrile, 0.1% formic acid
# Outline: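 Retention times of pure standards were taken from adduct peaks that were selected by computer and manually inspected. Over 3 months, mixtures of ~100 molecules were run by HPLC–quadrupole time-of-flight mass spectrometry in positive and negative ionization mode. The Zorbax Extend-C18 column (2.1 × 50 mm, 1.8 μm) ran at 100 μL/min in water and acetonitrile, each containing 0.1% formic acid, with 40 μL dead volume and 900 μL dwell volume.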
row,SMILES,RP-LC retention time
1,CCCN1C(=O)COc2ccc(-c3noc(Cc4ccc(OC)c(OC)c4)n3)cc21,993 s
2,CCCCOc1ccc(-c2cc3c4nnc(CCC(=O)NCc5ccc(F)cc5)n4ccn3n2)cc1,952 s
3,Cc1cc(C)c(C#N)c(SCC(=O)N2CCOCC2)n1,721 s
4,COc1ccc(-c2nnc(-c3cccc(S(=O)(=O)N4CCCCCC4)c3)o2)cc1,1130 s
5,CCn1nnc2ccc(-c3noc(-c4cccc(OC)c4)n3)cc21,1060 s
6,Fc1ccc(-c2nnc(Cc3nc(-c4ccc(Cl)cc4)no3)o2)cc1,1080 s
7,COc1ccc(Cn2nccc2NC(=O)COc2ccc(Cl)cc2)cc1,882 s
8,O=C(CCn1cnc2c(-c3ccccc3)noc2c1=O)NCCCN1CCc2ccccc2C1,679 s
9,CCCCc1nnc(NC(=O)C2CC(=O)N(CCc3c[nH]c4ccc(C)cc34)C2)s1 (stereo unspecified),802 s
10,Cn1ncc2c(N3CCSCC3)nc(C(=O)NCc3cccs3)nc21,778 s
11,O=C(O)CC(CC(=O)NCc1ccccc1)c1ccc(Br)cc1 (stereo unspecified),712 s
12,O=C(CCSCCc1ccccn1)Nc1c(F)cc(F)cc1Br,627 s
13,Cn1cc(CCN2CCC(C(=O)NCC3CCCO3)CC2)c2cccnc21 (stereo unspecified),562 s
14,CN1CCCn2nc(C3CCN(C(=O)Nc4cccc(C#N)c4)CC3)cc2C1=O,656 s
15,CCCCC(=O)N1CC(c2nc(-c3cccnc3)no2)C2(CCOCC2)C1 (stereo unspecified),651 s
16,O=C(CN1CCCCC1c1nc(-c2ccc(F)cc2)no1)NC1CCCCC1 (stereo unspecified),1150 s
17,O=C1c2ccccc2C(=O)c2nc(-c3ccccc3)c(-c3ccccc3)nc21,1030 s
18,CC(C)NC(=O)N1CCC(c2noc(-c3ccccn3)n2)C1 (stereo unspecified),648 s
19,Cc1cc2c(c(=O)n(-c3ccc(F)cc3)c(=O)n2CC(=O)Nc2ccc(F)c(Cl)c2)n1C,854 s
20,CC(C)n1cnnc1CC1CN(C(=O)Nc2cc(F)cc(F)c2)C1,667 s
21,CCn1nccc1-c1cccc(-c2noc(-c3ccsc3)n2)c1,1130 s
22,O=C1CC(c2noc(-c3cc(F)cc(F)c3)n2)CN1c1ccc(F)cc1 (stereo unspecified),944 s
23,Cc1noc(C2(NC(=O)c3ccc(C(F)(F)F)cc3)CCCCC2)n1,711 s

# Now from value to compound:
row,RP-LC retention time,SMILES
1,674 s,Cc1nnc(N2CCCC(C(=O)NCc3cccc(Cl)c3)C2)c2nn(-c3ccccc3)c(C)c12 (stereo unspecified)
2,684 s,COc1cccc(CNC(=O)NCCc2nc3cccnc3n2C2CCCC2)c1
3,895 s,CCOC(=O)c1c(S(=O)(=O)N2CCC(C(=O)Nc3ccc(F)cc3F)CC2)c(C)n(CC)c1C
4,737 s,CCOC(=O)CNC(=O)NCc1cccn1Cc1ccccc1C
5,689 s,CCC1CCCCN1C(=O)c1cnc2nc(C)ccc2c1Nc1cc(OC)ccc1OC (stereo unspecified)
6,586 s,COc1ccccc1CN1C[C@@H]2C(=O)N(CCCN3CCCC3=O)C(=O)[C@@H]2C1
7,777 s,CCS(=O)(=O)N1CCC([C@@H](C)n2c(C)c(C(=O)NCc3c(OC)cc(C)[nH]c3=O)c3ccccc32)CC1
8,654 s,Cc1nnc2c(=O)n(CC(=O)NCc3ccccc3)c3cccnc3n12
9,599 s,CCN1C(=O)NC(c2ccc(Cl)cc2)C2=C1CN(CCC(=O)NCCOC)C2=O (stereo unspecified)
10,862 s,O=C(CN1C(=O)CCCc2cc(S(=O)(=O)N3CCCCC3)ccc21)NCc1ccc(F)cc1
11,761 s,O=C(CN1CCN(Cc2ccccc2)C1=O)NCc1cccc(F)c1
12,947 s,Cc1ccc(CCNC(=O)c2ccc3c(c2)N(C)C(=O)C2CCCCN32)cc1 (stereo unspecified)
13,1070 s,CCN1C(=O)C2(CCN(S(=O)(=O)c3cccc(C)c3)CC2)c2ccccc21
